Experimental data published in patent publication US20260021132A1, “PHARMACOLOGICAL THERAPY FOR MITOCHONDRIAL DNA DEPLETION DELETIONS SYNDROME INVOLVING MUTATIONS IN THE GUK1 GENE” (The Trustees of Columbia University in the City of New York, priority 2023, published 2026).

What was measured:
[1] = test system: dGK-deficient fibroblasts; details: cited from earlier work
[2] = mice; cited from earlier work
GUK1 patient fibroblasts = assay: mtDNA content of proliferating GUK1 patient fibroblasts (quantitative Real-Time PCR, mtDNA/nDNA); format: cell-based, human; details: three different GUK1 patient proliferating fibroblasts, FIG. 3B
Protocol: Levels of mtDNA were measured by quantitative Real-Time PCR (in triplicate) and expressed as mtDNA/nDNA (12S/RNase P) and levels are expressed as percent relative to control fibroblast mtDNA. * indicates p<0.05. P values determined by Mann-Whitney U test. Initially, GUK1 mutant patient fibroblasts will be supplemented with dG. Based on published reports of deoxynucleoside supplementation for rescue of other models of mtDNA depletion, fibroblast culture media will be supplemented with dG at concentrations ranging from 1 μM to 400 μM (Camara, et al. 2014; Pontarin, et al. 2012; […], et al. 2003; Bulst, et al. 2012). Throughout each experiment, fibroblasts will be actively proliferating to emphasize use of the de novo dNTP synthesis pathway. The primary outcome measure will be mtDNA copy number comparing untreated and dG-supplemented fibroblasts. To complement the mtDNA results, it will be determined whether the mitochondrial dGTP concentration increases with dG supplementation by measuring mitochondrial dNTP pools. As a functional measure of mitochondrial rescue in treated fibroblasts, we will also measure OxPhos activity.

| Structure (SMILES) | efficacy of purine supplementation [1] | circulating dG [2] | mtDNA as compared to untreated (GUK1 patient fibroblasts; forodesine at 1 mM alone) | mtDNA as compared to untreated (GUK1 patient fibroblasts; dG at 1 μM alone) |
| --- | --- | --- | --- | --- |
| O=c1[nH]cnc2c([C@@H]3N[C@H](CO)[C@@H](O)[C@H]3O)c[nH]c12 [forodesine] | enhances the efficacy of purine supplementation | can increase circulating dG | increase |  |
| Nc1nc2c(ncn2[C@H]2C[C@H](O)[C@@H](CO)O2)c(=O)[nH]1 [dG, deoxyguanosine] |  |  |  | increase |
